The text below walks through data of PMC11585924, “Direct measurements of neurosteroid binding to specific sites on GABAA receptors” (British journal of pharmacology, 2024).

Each structure is given as a SMILES string. “Also recorded” adds a separate entry of the source.

For orientation: IC50 means the concentration needed to halve the response being measured. Higher therefore signals a need for much substance. The Hill slope is a measure of the steepness of the concentration-response curve.

Type in all cases: binding
The target in assay [1] is T1, ELIC-α1^W246LGABAAR (Homo sapiens, UniProt P14867, W273L). In words: biochemical. How it is done:
ELIC-α1GABAAR was expressed and purified according to a previously published protocol ([Q. Chen et al., 2018]). The purified protein was aliquoted and stored at −80°C. Mutagenesis was performed as described in previous reports ([Kinde et al., 2016]) by oligonucleotide-directed mutagenesis using Phu polymerase (Thermo Fisher Scientific, Waltham, MA, USA) verified by sequencing. ELIC-α1GABAAR was expressed in OverExpress™ C43(D3) E. coli, derived from Rosetta™(DE3) cells under double selection with kanamycin and chloramphenicol for ELIC-α1GABAAR.
One hundred microlitres of purified ELIC-α1GABAAR (0.3 μM in Buffer A + 0.015% DDM) was transferred into a 50-μl window quartz cuvette (Starna Cells, Atascadero, CA, USA), which was placed in a cuvette holder maintained at 4°C. […] Two microlitres of NaI (AK Scientific, Union City, CA, USA; 5-M stock prepared in 0.1-Mm sodium hydrosulfite [Sigma-Aldrich, St. Louis, MO, USA]) was added to the protein (final concentration = 100 mM) and incubated for 10 min to reduce the fluorescence emission from hydrophilic tryptophans. To measure the concentration–dependent effects of NS on tryptophan fluorescence, 1 μl of NS from each 100× stock solution was sequentially added to the NaI-equilibrated protein and thoroughly mixed to achieve concentrations from 0.01 to 50 μM. […]

Assay [2] concerns the target T2, ELIC-α1GABAAR (Homo sapiens, UniProt P14867). On the procedure:
(§1) One hundred microlitres of ELIC-α1GABAAR (0.3 μM) was transferred into a 50-μl window quartz cuvette maintained at 4°C, and NaI was added to the protein sample to a final concentration of 100 mM and incubated for 10 min. MQ290 was then added at a concentration of 3 μM for 3α-OH NS inhibition curves or 1 μM for 3β-OH NS inhibition curves and incubated for 30 min. One-microlitre aliquots of 3α-OH and 3β-OH NS from their corresponding stock solutions (prepared in Buffer A + 0.015% DDM) were added to achieve concentrations between 0.01 and 30 μM. The background emission spectra of ligands alone were obtained for each ligand concentration in the absence of protein and were subtracted from the protein-ligand emission spectra to yield background subtracted data. The MQ290 FRET spectra for different ligand concentrations were estimated using the method described above. The 370-nm intensities of the FRET spectra were plotted against ligand concentration and fitted to a four-parameter logistic curve to obtain IC50 data (GraphPad Software version 9.4.0, San Diego, CA). Ki values were calculated using the relationship: Ki=IC50/1+LT/Kd
where LT is the concentration of MQ290 and Kd was determined from the MQ290 binding curve.

For assay [3], the target named is T1, ELIC-α1^W246LGABAAR. In words: Inhibition of MQ290 FRET by NS in W246L receptors. Conditions: 30 μM NS; MQ290 1 μM. On the procedure: as §1
The target of assay [4] is T2, ELIC-α1GABAAR. In words: KK200 photolabelling competition, middle-down MS. Conditions: 3 μM KK200, 30 μM competitor. On the procedure: The synthesis of the NS photolabelling reagent KK200 is detailed in previous reports ([W. W. L. Cheng et al., 2018]; [Jiang et al., 2016]). […] The samples were then irradiated in a quartz cuvette for 5 min, using a photoreactor emitting light at >320 nm ([Germann et al., 2021]). Sample preparation for tryptic digestion and analysis by LC–MS was performed as previously described ([Sugasawa et al., 2019]). Peptides were separated on a home-packed PLRP-S (Agilent, Santa Clara, CA, USA) column (10 cm × 75 μm, 300 Å) using a 135-min gradient from 10% to 90% acetonitrile and introduced to an Orbitrap-Elite mass spectrometer (Thermo Fisher Scientific, Waltham, MA, USA; RRID:SCR_020548) at 800 nl·min^−1 with a nanospray source. MS acquisition was set as an MS1 Orbitrap scan (resolution of 60,000) followed by top 20 MS2 Orbitrap scans (resolution of 15,000) using data-dependent acquisition and exclusion of singly charged precursors. Fragmentation was performed using high-energy dissociation with normalized energy of 35%. Analysis of data sets was performed using Xcalibur (Thermo Fisher Scientific, Waltham, MA, USA; RRID: SCR_014593) to manually search for TM1, TM2, TM3 or TM4 tryptic peptides with or without NS photolabelling modifications. Photolabelling efficiency was estimated by generating extracted chromatograms of unlabelled and labelled peptides, determining the area under the curve, and calculating the (area of labelled peptide/(area of unlabelled + area of labelled peptide). MS2 spectra of photolabelled TMD peptides were analysed by manual assignment of fragment ions with and without photolabelling modification.

T2 sequence (P14867 other isoform, or with tags, fused parts or gaps): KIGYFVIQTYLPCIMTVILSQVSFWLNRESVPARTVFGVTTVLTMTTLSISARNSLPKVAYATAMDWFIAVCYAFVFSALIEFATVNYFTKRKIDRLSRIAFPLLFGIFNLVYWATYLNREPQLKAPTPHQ
T2 sequence (P0C7B7 1-198, further chain): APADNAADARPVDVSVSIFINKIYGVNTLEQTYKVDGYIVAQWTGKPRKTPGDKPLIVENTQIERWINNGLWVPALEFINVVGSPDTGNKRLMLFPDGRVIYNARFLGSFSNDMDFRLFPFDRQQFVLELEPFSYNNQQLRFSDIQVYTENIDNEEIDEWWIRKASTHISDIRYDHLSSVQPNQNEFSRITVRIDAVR
T1 sequence (P14867 other isoform, or with tags, fused parts or gaps W273L): as the sequence (P14867 other isoform, or with tags, fused parts or gaps) above, with W25L counted along it
T1 sequence (P0C7B7 1-198, further chain): as the sequence (P0C7B7 1-198, further chain) above

For `CC(=O)[C@H]1CC[C@H]2[C@@H]3CC[C@H]4C[C@@H](O)CC[C@]4(C)[C@H]3CC[C@]12C` [Epi-AlloP, epi-allopregnanolone], at ELIC-α1^W246LGABAAR [1], the midpoint of inhibition, the IC50, lay at 340 ± 130 nM. Moreover, the Hill slope at ELIC-α1GABAAR [2] (3β-OH NS, MQ290 1 μM) was −0.68 ± 0.45. For the same compound, the “mechanism of inhibition of MQ290 binding” value at ELIC-α1GABAAR [2] (MQ290 binding curves with 3×Kd and 30 μM NS) was “allosteric mechanism of inhibition”. Also, at ELIC-α1^W246LGABAAR [3], the “inhibition of remaining MQ290 FRET signal in W246L” value is “reduced by neither”. Moreover, the “prevention of KK200 photolabelling of TM3 (Y309)” value at ELIC-α1GABAAR [4] is on record as “not significantly different than control; also recorded: did not”.
